Our source for the IC50 values is patent US10919852B2, “Immunomodulator compounds” (CHEMOCENTRYX, INC., priority 2017, dated 2021).

Structures are written as SMILES.

Broadly, the IC50 is the midpoint of a concentration-inhibition curve. A high value points to weaker potency in that assay.

In the test the target is human PD-L1 / Human PD-1 (Homo sapiens (Human), UniProt Q9NZQ7). The test is described as follows: Enzyme-Linked Immunosorbent Assay (ELISA), PD-1/PD-L1 binding. The note with it: plate-coated human PD-L1, biotinylated human PD-1. The method, boiled down: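 Compound dilutions (1:5 series) competed with 0.3 μg/mL biotin-labelled human PD-1 for PD-L1 immobilised at […], for 1 h at 37 °C. Read-out was A450 after streptavidin-HRP and a 20 min TMB reaction, stopped with 2 N H2SO4.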
On the technique in general: ELISA stands for enzyme-linked immunosorbent assay.

human PD-L1 / Human PD-1, sequence (Q9NZQ7 19-239): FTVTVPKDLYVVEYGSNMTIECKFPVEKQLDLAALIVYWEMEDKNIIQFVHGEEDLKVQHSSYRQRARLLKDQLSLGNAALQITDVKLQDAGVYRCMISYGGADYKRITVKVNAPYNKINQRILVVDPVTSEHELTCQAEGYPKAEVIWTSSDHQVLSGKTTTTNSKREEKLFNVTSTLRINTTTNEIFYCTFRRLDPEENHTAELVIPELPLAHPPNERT

For the compound `CCOC(=O)[C@@H](NCc1cc(Cl)c(O[C@H]2CCc3c(-c4cccc(OCCCN5CCC(O)CC5)c4C)cccc32)cc1OCc1cncc(C#N)c1)[C@@H](C)O`, the IC50 lay within 5 to 500 nM.
In turn, `Cc1c(OCCCN2CCC(O)CC2)cccc1-c1cccc2c1CC[C@@H]2Oc1cc(OCc2cc(C#N)cc(C#N)c2)c(CN[C@@H](CO)C(=O)O)cc1Cl` yielded an IC50 of less than 5 nM.
Then `Cc1c(OCCCN2CCC(O)CC2)cccc1-c1cccc2c1CC[C@@H]2Oc1cc(OCc2cc(C#N)cc(C#N)c2)c(CN[C@H](C(=O)O)[C@@H](C)O)cc1Cl`, with less than 5 nM; and `Cc1c(OCCCN2CCC(O)CC2)cccc1-c1cccc2c1CC[C@@H]2Oc1cc(OCc2cc(C#N)cc(C#N)c2)c(CN[C@@H]2CCCC[C@@H]2O)cc1Cl`, with less than 5 nM; and `Cc1c(OCCCN2CCC(F)CC2)cccc1-c1cccc2c1C[C@@H](F)[C@@H]2Oc1cc(OCc2cc(C#N)cc(C#N)c2)c(CN[C@H]2CCC(=O)NC2)cc1Cl`, with 5 to 500 nM.
Then `Cc1c(OCCCN2CCC(C)(F)CC2)cccc1-c1cccc2c1C[C@@H](F)[C@@H]2Oc1cc(OCc2cc(C#N)cc(C#N)c2)c(CN[C@H]2CCC(=O)NC2)cc1Cl`, with 5 to 500 nM.
In turn, `Cc1c(OCCCN2CCC(F)CC2)cccc1-c1cccc2c1CC[C@@H]2Oc1cc(OCc2cc(C#N)cc(C#N)c2)c(CN[C@@H]2CCC(=O)NC2=O)cc1Cl` had an IC50 of 5 to 500 nM.
Then `Cc1c(OCCCN2C(C)(C)CCCC2(C)C)cccc1-c1cccc2c1CC[C@@H]2Oc1cc(OCc2cc(C#N)cc(C#N)c2)c(CN[C@H]2CCC(=O)NC2)cc1Cl`, with 5 to 500 nM; and `CCOc1cc(O[C@H]2CCc3c(-c4cccc(OCCCN5CCC(F)CC5)c4Cl)cccc32)c(Cl)cc1CN[C@@H]1CCC(=O)NC1`, with 5 to 500 nM; and `Cc1c(OCCCN2CCC(F)(C#N)CC2)cccc1-c1cccc2c1CC[C@@H]2Oc1cc(OCc2cc(C#N)cc(C#N)c2)c(CN[C@H]2CCC(=O)NC2)cc1Cl`, with 5 to 500 nM.
As for `Cc1c(OCCCN2CCC(F)CC2)cccc1-c1cccc2c1CC[C@@H]2Oc1cc(OCc2cc(C#N)cc(C#N)c2)c(CNC2CCNC(=O)C2)cc1Cl` (stereo partly shown), the figure is less than 5 nM.
On to `Cc1c(OCCCN2CCC[C@@H](F)C2)cccc1-c1cccc2c1CC[C@@H]2Oc1cc(OCc2cc(C#N)cc(C#N)c2)c(CN[C@H]2CCC(=O)NC2)cc1Cl`, for which the IC50 was in the range of 5 to 500 nM.
As for `CCOc1cc(O[C@H]2CCc3c(-c4cccc(OCCCN5CCC(F)CC5)c4Cl)cccc32)c(Cl)cc1CN[C@H]1CCC(=O)NC1`, the figure is 5 to 500 nM; as for `Cc1c(OCCCN2C(C)CC2C)cccc1-c1cccc2c1CC[C@@H]2Oc1cc(OCc2cc(C#N)cc(C#N)c2)c(CN[C@H]2CCC(=O)NC2)cc1Cl` (stereo partly shown), less than 5 nM.
Then `COc1cc(O[C@H]2CCc3c(-c4cccc(OCCCN5CCC(F)CC5)c4C)cccc32)c(Cl)cc1CN[C@H]1CCC(=O)NC1`, with 5 to 500 nM; and `COc1cc(O[C@H]2CCc3c(-c4cccc(OCCCN5CCC(C)(F)CC5)c4C)cccc32)c(Cl)cc1CN[C@H]1CCC(=O)NC1`, with 5 to 500 nM.
As for `Cc1c(OCCCN2CCCCC2(C)C)cccc1-c1cccc2c1CC[C@@H]2Oc1cc(OCc2cc(C#N)cc(C#N)c2)c(CN[C@H]2CCC(=O)NC2)cc1Cl`, the figure is 5 to 500 nM; as for `Cc1c(OCCCN2CCCC2C(C)(C)C)cccc1-c1cccc2c1CC[C@@H]2Oc1cc(OCc2cc(C#N)cc(C#N)c2)c(CN[C@H]2CCC(=O)NC2)cc1Cl` (stereo partly shown), 5 to 500 nM.
On to `CN1CCC(COc2cccc(-c3cccc4c3CC[C@@H]4Oc3cc(OCc4cncc(C#N)c4)c(CN[C@H]4CCC(=O)NC4)cc3Cl)c2Cl)C1` (stereo partly shown), for which the IC50 was in the range of 5 to 500 nM.
Then `Cc1c(OCCCN2CC(C)(F)C2)cccc1-c1cccc2c1CC[C@@H]2Oc1cc(OCc2cc(C#N)cc(C#N)c2)c(CNC[C@H]2CCC(=O)N2)cc1Cl`, with 5 to 500 nM; and `N#Cc1cncc(COc2cc(O[C@H]3CCc4c(-c5cccc(OCCCN6CCC(F)CC6)c5Cl)cccc43)c(Cl)cc2CN2CC(C(=O)O)C2)c1`, with less than 5 nM.
In turn, `Cc1c(OCCCN2CC(C)(F)C2)cccc1-c1cccc2c1CC[C@@H]2Oc1cc(OCc2cc(C#N)cc(C#N)c2)c(CN[C@H]2CCC(=O)NC2)cc1Cl` had an IC50 of 5 to 500 nM.
Then `Cc1c(OCCCN2CC(C)(C)C2)cccc1-c1cccc2c1CC[C@@H]2Oc1cc(OCc2cc(C#N)cc(C#N)c2)c(CN[C@H]2CCC(=O)NC2)cc1Cl`, with less than 5 nM; and `CCOc1cc(O[C@@H]2c3cccc(-c4cccc(OCCCN5CCC(C)(F)CC5)c4C)c3C[C@@H]2F)c(Cl)cc1CN[C@H](C(=O)NS(C)(=O)=O)[C@@H](C)O`, with 5 to 500 nM; and `Cc1c(OCCCN2CCC(F)CC2)cccc1-c1cccc2c1CC[C@@H]2Oc1cc(OCc2cncc(C#N)c2)c(CNCC2CCC(=O)N2C)cc1Cl` (stereo partly shown), with 5 to 500 nM.
Then `CCOc1cc(O[C@H]2CCc3c(-c4cccc(OCCCNC(C)(C)C)c4C)cccc32)c(Cl)cc1CN1CC(C(=O)O)C1`, with 5 to 500 nM.
Then `CCOc1cc(O[C@H]2CCc3c(-c4cccc(OCCCN5CCCC5(C)C)c4C)cccc32)c(Cl)cc1CN(C[C@@H]1CCC(=O)N1)C(C)C`, with 5 to 500 nM; and `CN1CC(COc2cccc(-c3cccc4c3CC[C@@H]4Oc3cc(OCc4cncc(C#N)c4)c(CN[C@H]4CCC(=O)NC4)cc3Cl)c2Cl)CC1=O` (stereo partly shown), with 5 to 500 nM; and `Cc1c(OCCCN2CCC(F)CC2)cccc1-c1cccc2c1CC[C@@H]2Oc1cc(OCc2cncc(C#N)c2)c(CN2CC(S(N)(=O)=O)C2)cc1Cl`, with 5 to 500 nM.
`CCOc1cc(O[C@H]2CCc3c(-c4cccc(OCCCN5CCC5(C)C)c4C)cccc32)c(Cl)cc1CN[C@H]1CCC(=O)NC1` had an IC50 of 5 to 500 nM.
As for `CCOc1cc(O[C@H]2CCc3c(-c4cccc(OCCCN5CCC5(C)C)c4C)cccc32)c(Cl)cc1CNC[C@@H]1CCC(=O)N1`, the figure is less than 5 nM.
Then `CCOc1cc(O[C@H]2CCc3c(-c4cccc(OCCCN5CCC5(C)C)c4C)cccc32)c(Cl)cc1CN1CCC1(C)C`, with 5 to 500 nM; and `CCOc1cc(O[C@H]2CCc3c(-c4cccc(OCCCN5CCOCC5)c4C)cccc32)c(Cl)cc1CN1CC(C)(C(=O)O)C1`, with 5 to 500 nM; and `CCOc1cc(O[C@H]2CCc3c(-c4cccc(OCCCN5CCC5(C)C)c4C)cccc32)c(Cl)cc1CN1CC(C(=O)O)C1`, with 5 to 500 nM.
Then `CCOc1cc(O[C@H]2CCc3c(-c4cccc(OCCCN5CCC5(C)C)c4C)cccc32)c(Cl)cc1CN1CC(C)(C(=O)O)C1`, with 5 to 500 nM; and `Cc1c(OCCCN2CC[C@@H](F)C[C@@H]2C)cccc1-c1cccc2c1CC[C@@H]2Oc1cc(OCc2cc(C#N)cc(C#N)c2)c(CN[C@H]2CCC(=O)NC2)cc1Cl`, with 5 to 500 nM.
In the case of `CCOc1cc(O[C@H]2CCc3c(-c4cccc(OCCCN5CCC5(C)C)c4C)cccc32)c(Cl)cc1CNC[C@H]1CCC(=O)N1`, the IC50 fell in the range of 5 to 500 nM.
As for `CCOc1cc(O[C@H]2CCc3c(-c4cccc(OCCCN5CCC5(C)C)c4C)cccc32)c(Cl)cc1CN1CC(C)(C#N)C1`, the figure is 5 to 500 nM.
As for `CCOc1cc(O[C@H]2CCc3c(-c4cccc(OCCCN5CCC5(C)C)c4C)cccc32)c(Cl)cc1CN1CC(C#N)C1`, the figure is 5 to 500 nM.
Then `CCOc1cc(O[C@H]2CCc3c(-c4cccc(OCCCN5[C@H](C)CC[C@H]5C)c4C)cccc32)c(Cl)cc1CNC[C@@H]1CCC(=O)N1`, with less than 5 nM; and `CCOc1cc(O[C@H]2CCc3c(-c4cccc(OCCCN5CCC[C@H]5C(C)C)c4C)cccc32)c(Cl)cc1CNC[C@@H]1CCC(=O)N1`, with 5 to 500 nM; and `CCOc1cc(O[C@H]2CCc3c(-c4cccc(OCCCN5CCC[C@@H]5C(C)C)c4C)cccc32)c(Cl)cc1CNC[C@@H]1CCC(=O)N1`, with less than 5 nM.
With `CCOc1cc(O[C@H]2CCc3c(-c4cccc(OCCCN(C)C(C)(C)C)c4C)cccc32)c(Cl)cc1CNC[C@@H]1CCC(=O)N1`, the IC50 was less than 5 nM.
Then `CCOc1cc(O[C@H]2CCc3c(-c4cccc(OCCCN5CCC5(C)C)c4C)cccc32)c(Cl)cc1CNCC1CCC(=O)N1C` (stereo partly shown), with 5 to 500 nM; and `CCOc1cc(O[C@H]2CCc3c(-c4cccc(OCCCN5CCC5(C)C)c4C)cccc32)c(Cl)cc1CN1CC(CC)(C(=O)O)C1`, with 5 to 500 nM.
Then `CCOc1cc(O[C@H]2CCc3c(-c4cccc(OCCCN(C)C(C)C)c4C)cccc32)c(Cl)cc1CNC[C@@H]1CCC(=O)N1`, with less than 5 nM; and `CCOc1cc(O[C@H]2CCc3c(-c4cccc(OCCCN5CCCCC5(C)C)c4C)cccc32)c(Cl)cc1CNC[C@@H]1CCC(=O)N1`, with 5 to 500 nM.
As to `CCOc1cc(O[C@H]2CCc3c(-c4cccc(OCCCN5C(C)CC5(C)C)c4C)cccc32)c(Cl)cc1CNC[C@@H]1CCC(=O)N1` (stereo partly shown), the IC50 was less than 5 nM.
`CCOc1cc(O[C@H]2CCc3c(-c4cccc(OCCCN5CCC5C(C)(C)C)c4C)cccc32)c(Cl)cc1CNC[C@@H]1CCC(=O)N1` (stereo partly shown) came in with an IC50 of 5 to 500 nM.
`CCOc1cc(O[C@H]2CCc3c(-c4cccc(OCCC(C)(C)N)c4C)cccc32)c(Cl)cc1CNC[C@@H]1CCC(=O)N1` yielded an IC50 of 5 to 500 nM.
Then `CCOc1cc(O[C@H]2CCc3c(-c4cccc(OCCC(C)(C)N)c4C)cccc32)c(Cl)cc1CN[C@H]1CCC(=O)NC1`, with 5 to 500 nM.
Then `CCOc1cc(O[C@H]2CCc3c(-c4cccc(OCCCN5CCC5(C)C)c4C)cccc32)c(Cl)cc1CNCCO`, with less than 5 nM.
Then `CCOc1cc(O[C@H]2CCc3c(-c4cccc(OCCCN5CCC5(C)C)c4C)cccc32)c(Cl)cc1CNCC(C)(C)CO`, with 5 to 500 nM; and `CCOc1cc(O[C@H]2CCc3c(-c4cccc(OCCCN5C(C)CC5C)c4C)cccc32)c(Cl)cc1CNC[C@@H]1CCC(=O)N1` (stereo partly shown), with less than 5 nM.
Take `CN1CCC(COc2cccc(-c3cccc4c3CC[C@@H]4Oc3cc(OCc4cncc(C#N)c4)c(CN[C@H]4CCC(=O)NC4)cc3Cl)c2Cl)C1=O` (stereo partly shown): the IC50 lay in the range of 5 to 500 nM.
As for `CCOc1cc(O[C@H]2CCc3c(-c4cccc(OCCCN5CC(C)(C)C5)c4C)cccc32)c(Cl)cc1CNC[C@@H]1CCC(=O)N1`, the figure is 5 to 500 nM.
`CCOc1cc(O[C@@H]2c3cccc(-c4cccc(OCCCN5CCC(C)(F)CC5)c4C)c3C[C@@H]2F)c(Cl)cc1CNC[C@@H]1CCC(=O)N1` had an IC50 of 5 to 500 nM.
For `CCOc1cc(O[C@H]2CCc3c(-c4cccc(OCCCN5CCC5(C)C)c4C)cccc32)c(Cl)cc1CN1CCNC(=O)CC1`, the IC50 lay within 5 to 500 nM.
